Assays:
786-0 = assay: cells; details: Homo sapiens, 786-0, 72 h
Description: Antiproliferative activity against human 786-0 cells assessed as inhibition of cell growth incubated for 72 hrs by celltiter-glo assay

[1] = target: Endothelial PAS domain-containing protein 1 (Homo sapiens, UniProt Q99814); assay: Inhibition of HIF-2alpha (unknown origin)
[2] = target: T1, Vascular endothelial growth factor A, long form (Homo sapiens, UniProt P15692); assay: Inhibition of VEGF (unknown origin) by FRET based analysis
T1 sequence (P15692 whole entry): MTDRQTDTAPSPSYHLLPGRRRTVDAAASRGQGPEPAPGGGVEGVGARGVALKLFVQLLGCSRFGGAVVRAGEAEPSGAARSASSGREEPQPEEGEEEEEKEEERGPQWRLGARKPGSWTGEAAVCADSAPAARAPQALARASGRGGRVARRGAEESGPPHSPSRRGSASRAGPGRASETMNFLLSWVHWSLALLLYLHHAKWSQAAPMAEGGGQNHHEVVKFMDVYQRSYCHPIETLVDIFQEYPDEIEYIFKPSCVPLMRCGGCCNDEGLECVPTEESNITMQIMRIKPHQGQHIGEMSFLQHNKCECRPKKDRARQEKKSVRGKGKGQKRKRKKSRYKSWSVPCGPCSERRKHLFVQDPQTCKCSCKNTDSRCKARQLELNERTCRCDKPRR

Endothelial PAS domain-containing protein 1, sequence (Q99814 whole entry, the tested form may be a part): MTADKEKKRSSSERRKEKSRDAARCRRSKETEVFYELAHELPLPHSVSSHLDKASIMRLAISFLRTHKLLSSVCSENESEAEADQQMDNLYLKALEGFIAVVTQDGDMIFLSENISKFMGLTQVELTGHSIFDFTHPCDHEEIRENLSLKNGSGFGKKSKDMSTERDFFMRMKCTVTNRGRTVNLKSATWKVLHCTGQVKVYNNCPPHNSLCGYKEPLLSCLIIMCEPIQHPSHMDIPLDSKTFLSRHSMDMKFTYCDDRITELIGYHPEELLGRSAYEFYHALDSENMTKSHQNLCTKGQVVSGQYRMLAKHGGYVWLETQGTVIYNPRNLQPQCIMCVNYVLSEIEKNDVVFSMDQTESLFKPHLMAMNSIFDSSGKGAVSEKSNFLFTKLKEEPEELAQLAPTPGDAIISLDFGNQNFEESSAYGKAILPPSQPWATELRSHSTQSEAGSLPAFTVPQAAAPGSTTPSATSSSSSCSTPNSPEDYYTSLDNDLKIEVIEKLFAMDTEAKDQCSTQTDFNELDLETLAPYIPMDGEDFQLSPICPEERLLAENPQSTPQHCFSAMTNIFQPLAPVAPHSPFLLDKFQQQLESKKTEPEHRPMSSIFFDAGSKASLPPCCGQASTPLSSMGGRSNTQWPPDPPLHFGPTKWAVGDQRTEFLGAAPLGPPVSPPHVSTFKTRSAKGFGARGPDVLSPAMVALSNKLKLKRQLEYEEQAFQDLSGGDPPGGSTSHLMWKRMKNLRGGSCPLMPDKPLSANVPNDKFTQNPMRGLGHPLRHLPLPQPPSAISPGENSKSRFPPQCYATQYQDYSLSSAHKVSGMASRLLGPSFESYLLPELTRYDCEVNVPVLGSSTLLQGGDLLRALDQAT

CC[C@@H](Nc1cccc(F)c1)C(=O)N/N=C/c1cccc(C)c1O
IC50 (786-0): 5000 nM

CS(=O)(=O)c1ccc(N2CCCc3ccccc32)c2c1[C@H](O)[C@H](F)C2
EC50 [1]: 340 nM

CS(=O)(=O)c1sc(N2CCCc3ccccc32)c2c1[C@H](O)[C@H](F)C2
EC50 [1]: 2200 nM

O[C@@H]1CCc2c(Oc3cc(F)cc(F)c3)ncnc21
EC50 [1]: 11 nM

CP(C)(=O)c1ccc(Oc2cc(F)cc(F)c2)c2c1C(O)C(F)(F)C2 (stereo not drawn)
EC50 [1]: 29 nM

Fc1c(C(F)(F)F)ncc2c1SC[C@H](F)[C@@]21CN2C=C(C(F)(F)F)C(OC(F)F)=CC2=N1
IC50 [2]: 15 nM

N#Cc1cc(F)cc(Oc2ccc3c4c2C(F)CC4(O)C(F)(F)S3(=O)=O)c1 (stereo not drawn)
EC50 [1]: < 50 nM

O[C@H]1c2c(C(F)(F)F)ncc(OC3CC(F)(F)C3)c2[C@@H](F)[C@H]1F
EC50 [1]: 21 nM

FC(F)OC1=CC2=N[C@]3(C[C@H]4C[C@H]4c4c3ccnc4Cl)CN2C=C1C(F)(F)F
IC50 [2]: 50 nM

CS(=O)(=O)c1ccc([C@H]2CCCc3cc(F)cc(C#N)c32)c2c1[C@H](O)[C@H](F)[C@@H]2F
EC50 [1]: < 100 nM

CNC(=O)c1ccn2c(C(F)F)cc(-c3ccc(C)c(C)c3)nc12
IC50 (786-0): < 5000 nM

OC1c2c(C(F)(F)F)cn(-c3cncc(F)c3)c2CC(F)C1F (stereo not drawn)
EC50 [1]: 500 nM

N#Cc1cc(F)cc(Oc2ccc(S(=O)(=O)C(F)(F)F)c3[nH]ncc23)c1
EC50 [1]: < 100 nM

— ChEMBL document CHEMBL5579853, “Recent progress in the development of hypoxia-inducible factor 2α (HIF-2α) modulators: Inhibitors, agonists, and degraders (2009-2024)” (Eur J Med Chem, 2024)
